In this assay the target is T1, GST-tagged KRAS-G12D (2-169) (Homo sapiens, UniProt P01116, G12D).
T1 construct: GST-tagged KRAS-G12D (2-169, Reaction Biology, MSC-11-539); purchased Reaction Biology MSC-11-539 (KRAS G12D); MSC-11-502 (SOS1cat)
As to the kind of experiment: Nucleotide exchange assay (NEA), SOS-mediated, HTRF, KRAS G12D. As to conditions: Table 4; IC50 extracted at 30 min. It counts as biochemical. In short, it runs like this:
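GST-KRAS-G12D (2-169, 5 nM final) with Tb-anti-GST donor was preincubated with compound 1 h at RT (pH 7.3 HEPES buffer, MgCl2, DTT), then SOScat (564-1049, 20 nM) and GTP-DY-647P1 (150 nM) were added. HTRF was read at RT; % inhibition vs DMSO/no-SOS blank, 4-parameter IC50 taken at 30 min.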
In general terms: TR-FRET usually uses a lanthanide donor and a delayed reading to cut background.

Data on 18 compounds can be found in patent US12145947B2, “Pyrimidine based modulators and uses thereof” (Quanta Therapeutics, Inc., priority 2022, dated 2024).

T1 sequence (P01116 2-169 isoform P01116-2 G12D): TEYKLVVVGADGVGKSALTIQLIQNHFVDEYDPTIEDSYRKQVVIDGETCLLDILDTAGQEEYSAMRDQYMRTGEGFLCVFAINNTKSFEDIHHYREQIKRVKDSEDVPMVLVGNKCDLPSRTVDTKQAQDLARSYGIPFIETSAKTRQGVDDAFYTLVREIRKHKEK

Take `N#Cc1c(N2CCCn3nc(-c4ccccn4)c(Cl)c3C2)nc(OCC2(CN3CCOCC3)CC2)nc1N1CC2(CCc3sc(N)c(C#N)c32)C1` [Compound 75, 2-amino-1′-[6-[3-chloro-2-(2-pyridyl)-4,6,7,8-tetrahydropyrazolo[1,5-a][1,4]diazepin-5-yl]-5-cyano-2-[[1-(morpholinomethyl)cyclopropyl]methoxy]pyrimidin-4-yl]spiro[5,6-dihydrocyclopenta[b]thiophene-4,3′-azetidine]-3-carbonitrile]: the IC50 is below 10 nM. `N#Cc1c(N2C[C@H]3CC[C@@H](C2)N3)nc(OCc2ccccc2)nc1N1CC2(CCc3sc(N)c(C#N)c32)C1` [Compound 76, 2-amino-1′-[2-benzyloxy-5-cyano-6-[(1R,5S)-3,8-diazabicyclo[3.2.1]octan-3-yl]pyrimidin-4-yl]spiro[5,6-dihydrocyclopenta[b]thiophene-4,3′-azetidine]-3-carbonitrile]: the IC50 is below 10 nM. In turn, `N#Cc1c(N2C[C@H]3CC[C@@H](C2)N3)nc(OCc2ccn[nH]2)nc1N1CC2(CCc3sc(N)c(C#N)c32)C1` [Compound 79, 2-amino-1′-[5-cyano-6-[(1R,5S)-3,8-diazabicyclo[3.2.1]octan-3-yl]-2-(1H-pyrazol-5-ylmethoxy)pyrimidin-4-yl]spiro[5,6-dihydrocyclopenta[b]thiophene-4,3′-azetidine]-3-carbonitrile] came in with an IC50 below 10 nM. The compound `CN1CCN(CC2(COc3nc(N4C[C@H]5CC[C@@H](C4)N5)c(C#N)c(N4CC5(CCc6sc(N)c(C#N)c65)C4)n3)CC2)CC1=O` [Compound 80, 2-amino-1′-[5-cyano-2-[[1-[(4-methyl-3-oxo-piperazin-1-yl)methyl]cyclopropyl]methoxy]-6-[(1R,5S)-3,8-diazabicyclo[3.2.1]octan-3-yl]pyrimidin-4-yl]spiro[5,6-dihydrocyclopenta[b]thiophene-4,3′-azetidine]-3-carbonitrile] showed an IC50 below 10 nM. In the case of `CO[C@H]1CN(CC2(COc3nc(N4C[C@H]5CC[C@@H](C4)N5)c(C#N)c(N4CC5(CCc6sc(N)c(C#N)c65)C4)n3)CC2)C[C@@H]1F` [Compound 81, 2-amino-1′-[5-cyano-6-[(1R,5S)-3,8-diazabicyclo[3.2.1]octan-3-yl]-2-[[1-[[(3S,4S)-3-fluoro-4-methoxy-pyrrolidin-1-yl]methyl]cyclopropyl]methoxy]pyrimidin-4-yl]spiro[5,6-dihydrocyclopenta[b]thiophene-4,3′-azetidine]-3-carbonitrile] it was below 10 nM; in that of `Cc1nc(-c2nn3c(c2Cl)CN(c2nc(OC[C@@]45CCCN4C[C@H](F)C5)nc(N4CC5(CCc6sc(N)c(C#N)c65)C4)c2C#N)CCC3)n(C)n1` [Compound 85, 2-amino-1′-[6-[3-chloro-2-(2,5-dimethyl-1,2,4-triazol-3-yl)-4,6,7,8-tetrahydropyrazolo[1,5-a][1,4]diazepin-5-yl]-5-cyano-2-[[(2R,8S)-2-fluoro-1,2,3,5,6,7-hexahydropyrrolizin-8-yl]methoxy]pyrimidin-4-yl]spiro[5,6-dihydrocyclopenta[b]thiophene-4,3′-azetidine]-3-carbonitrile], below 10 nM. For the compound `N#Cc1c(N2C[C@H]3CC[C@@H](C2)N3)nc(OCC2(CN3CCOCC3)CC2)nc1N1CC2(C=CCc3sc(N)c(C#N)c32)C1` [Compound 86, 2-amino-1′-[5-cyano-2-[[1-(morpholinomethyl)cyclopropyl]methoxy]-6-[(1R,5S)-3,8-diazabicyclo[3.2.1]octan-3-yl]pyrimidin-4-yl]spiro[7H-benzothiophene-4,3′-azetidine]-3-carbonitrile], the IC50 was below 10 nM. `CN(C)CC1(COc2nc(N3CCCn4nc(C(=O)N(C)C)c(Cl)c4C3)c(C#N)c(N3CC4(CCc5sc(N)c(C#N)c54)C3)n2)CC1(F)F` (stereo not drawn) [Compound 87, 5-[6-(2-amino-3-cyano-spiro[5,6-dihydrocyclopenta[b]thiophene-4,3′-azetidine]-1′-yl)-5-cyano-2-[[1-[(dimethylamino)methyl]-2,2-difluoro-cyclopropyl]methoxy]pyrimidin-4-yl]-3-chloro-N,N-dimethyl-4,6,7,8-tetrahydropyrazolo[1,5-a][1,4]diazepine-2-carboxamide] yielded an IC50 below 10 nM.

`C[C@H](Oc1nc(N2C[C@H]3CC[C@@H](C2)N3)c(C#N)c(N2CC3(CCc4sc(N)c(C#N)c43)C2)n1)[C@@H]1CCCN1C` [Compound 88, 2-amino-1′-[5-cyano-6-[(1R,5S)-3,8-diazabicyclo[3.2.1]octan-3-yl]-2-[(1S)-1-[(2S)-1-methylpyrrolidin-2-yl]ethoxy]pyrimidin-4-yl]spiro[5,6-dihydrocyclopenta[b]thiophene-4,3′-azetidine]-3-carbonitrile] displayed an IC50 of 10 to 100 nM. `N#Cc1c(N2C[C@H]3CC[C@@H](C2)N3)nc(OCC2(CN3C[C@@H]4C[C@H]3CO4)CC2)nc1N1CC2(CCc3sc(N)c(C#N)c32)C1` [Compound 89, 2-amino-1′-[5-cyano-6-[(1R,5S)-3,8-diazabicyclo[3.2.1]octan-3-yl]-2-[[1-[[(1S,4S)-2-oxa-5-azabicyclo[2.2.1]heptan-5-yl]methyl]cyclopropyl]methoxy]pyrimidin-4-yl]spiro[5,6-dihydrocyclopenta[b]thiophene-4,3′-azetidine]-3-carbonitrile] yielded an IC50 below 10 nM. As for `CN(C)C(=O)c1nn2c(c1Cl)CN(c1nc(OC[C@@]34CCCN3C[C@H](F)C4)nc(N3CC4(CCc5sc(N)c(C#N)c54)C3)c1C#N)CC(F)(F)C2` [Compound 91, 5-[6-(2-amino-3-cyano-spiro[5,6-dihydrocyclopenta[b]thiophene-4,3′-azetidine]-1′-yl)-5-cyano-2-[[(2R,8S)-2-fluoro-1,2,3,5,6,7-hexahydropyrrolizin-8-yl]methoxy]pyrimidin-4-yl]-3-chloro-7,7-difluoro-N,N-dimethyl-6,8-dihydro-4H-pyrazolo[1,5-a][1,4]diazepine-2-carboxamide], the IC50 was below 10 nM. The compound `N#Cc1c(N2C[C@H]3CC[C@@H](C2)N3)nc(OC[C@@H]2CCN2CC(F)(F)F)nc1N1CC2(CCc3sc(N)c(C#N)c32)C1` [Compound 92, 2-amino-1′-[5-cyano-6-[(1R,5S)-3,8-diazabicyclo[3.2.1]octan-3-yl]-2-[[(2S)-1-(2,2,2-trifluoroethyl)azetidin-2-yl]methoxy]pyrimidin-4-yl]spiro[5,6-dihydrocyclopenta[b]thiophene-4,3′-azetidine]-3-carbonitrile] had an IC50 of 10 to 100 nM. For the compound `C=C1CN2CCCC2(COc2nc(N3CCCn4nc(C(=O)N(C)C)c(Cl)c4C3)c(C#N)c(N3CC4(CCc5sc(N)c(C#N)c54)C3)n2)C1` (stereo not drawn) [Compound 93, 5-[6-(2-amino-3-cyano-spiro[5,6-dihydrocyclopenta[b]thiophene-4,3′-azetidine]-1′-yl)-5-cyano-2-[(6-methylene-2,3,5,7-tetrahydro-1H-pyrrolizin-8-yl)methoxy]pyrimidin-4-yl]-3-chloro-N,N-dimethyl-4,6,7,8-tetrahydropyrazolo[1,5-a][1,4]diazepine-2-carboxamide], the IC50 was below 10 nM.

In turn, `C=C1CN2CCCC2(COc2nc(N3C[C@H]4CC[C@@H](C3)N4)c(C#N)c(N3CC4(CCc5sc(N)c(C#N)c54)C3)n2)C1` (stereo partly drawn) [Compound 94, 2-amino-1′-[5-cyano-2-[(6-methylene-2,3,5,7-tetrahydro-1H-pyrrolizin-8-yl)methoxy]-6-[(1R,5S)-3,8-diazabicyclo[3.2.1]octan-3-yl]pyrimidin-4-yl]spiro[5,6-dihydrocyclopenta[b]thiophene-4,3′-azetidine]-3-carbonitrile] came in with an IC50 below 10 nM. In the case of `CN(C)CC1(COc2nc(N3CCCn4nc(C(=O)N(C)C)c(Cl)c4C3)c(C#N)c(N3CC4(CCCc5sc(N)c(C#N)c54)C3)n2)CC1(F)F` (stereo not drawn) [Compound 96, 5-[6-(2-amino-3-cyano-spiro[6,7-dihydro-5H-benzothiophene-4,3′-azetidine]-1′-yl)-5-cyano-2-[[1-[(dimethylamino)methyl]-2,2-difluoro-cyclopropyl]methoxy]pyrimidin-4-yl]-3-chloro-N,N-dimethyl-4,6,7,8-tetrahydropyrazolo[1,5-a][1,4]diazepine-2-carboxamide], the IC50 is below 10 nM. The result for `Cn1nccc1COc1nc(N2C[C@H]3CC[C@@H](C2)N3)c(C#N)c(N2CC3(CCc4sc(N)c(C#N)c43)C2)n1` [Compound 97, 2-amino-1′-[5-cyano-2-[(2-methylpyrazol-3-yl)methoxy]-6-[(1R,5S)-3,8-diazabicyclo[3.2.1]octan-3-yl]pyrimidin-4-yl]spiro[5,6-dihydrocyclopenta[b]thiophene-4,3′-azetidine]-3-carbonitrile] reads below 10 nM; that for `N#Cc1c(N2C[C@H]3CC[C@@H](C2)N3)nc(OCC2(c3ccn[nH]3)CC2)nc1N1CC2(CCc3sc(N)c(C#N)c32)C1` [Compound 98, 2-amino-1′-[5-cyano-6-[(1R,5S)-3,8-diazabicyclo[3.2.1]octan-3-yl]-2-[[1-(1H-pyrazol-5-yl)cyclopropyl]methoxy]pyrimidin-4-yl]spiro[5,6-dihydrocyclopenta[b]thiophene-4,3′-azetidine]-3-carbonitrile], below 10 nM; that for `N#Cc1c(N2C[C@H]3CC[C@@H](C2)N3)nc(OC[C@@]23CCCN2C[C@H](F)C3)nc1N1CC2(C1)c1c(sc(N)c1C#N)CC1CC12` (stereo partly drawn) [Compound 99, 2-amino-1′-[5-cyano-6-[(1R,5S)-3,8-diazabicyclo[3.2.1]octan-3-yl]-2-[[(2R,8S)-2-fluoro-1,2,3,5,6,7-hexahydropyrrolizin-8-yl]methoxy]pyrimidin-4-yl]spiro[4a,5,5a,6-tetrahydrocyclopropa[f]benzothiophene-4,3′-azetidine]-3-carbonitrile], below 10 nM.

By IC50 is commonly meant the concentration at which inhibition is half-maximal. Low readings indicate greater potency in that assay, high ones weaker potency in that assay.
